Columns and labels:
Format in all cases: in vivo, Sprague-Dawley rat
[1] = Weight gain inhibition in Sprague-Dawley rats, 65 days' treatment
Description: (§1) Male Sprague-Dawley rats were used with average body weight 223 g. The rats were fed with standard chow.
(§2) Before grouping, all animals were weighed at fasting state for 5 consecutive days. The first dose of the drug as indicated in Table 1 was administered on the next day after grouping; the dose was administered by gavage (t.i.d.) in a solution dose of […] body weight, and continued for a total of 65 days. Initially, each rat was treated accordingly with 0.25 mL drug solution; the dosage was then adjusted according to the body weight change of each rat, by increasing the dose by 0.05 mL for each 50 g body weight increment.
(§3) Groups were fed overnight with 30 g chowrat after drug administration and food deprived during daytime. Overnight food intake was measured every morning, while fasting body weight was measured every Tuesday and Friday night.
(§4) Statistical analysis was performed with SPSS software (IBM). One-way ANOVA was performed.

[2] = Overnight food intake in Sprague-Dawley rats during dosing; conditions: daily overnight food intake, 65 days of treatment, n=10
Description: as §1, §2, §3, §4

[3] = Fat mass of Sprague-Dawley rats after 65 days' treatment; conditions: for Fat Mass: average total fat mass after 65 days, n=10
Description: as §1, §2, §4

[4] = after 65 consecutive days of treatment

## CC(C)CC(N(C)C)C1(c2ccc(Cl)cc2)CCC1 (centres unmarked) [SIB, sibutramine]
[1]; [4]
  Effect on body weight gain: decreased body weight gain
[1]; male Sprague-Dawley rats, gavage t.i.d., 65 days, fasting body weight, n=10
  Post-Dose body weight: 493.8 ± 13.0 g
[1]; male Sprague-Dawley rats, gavage t.i.d., 65 days, n=10
  ΔBW (increase of body weight): 270.7 ± 11.6 g
[1]; male Sprague-Dawley rats, gavage t.i.d., 65 days, n=10, listed as sibutramine
  ΔBW (increase of body weight): 270.7 g
[1]; vs. GS control group, 65 days, n=10
  Relative Body Weight: -22.0 g
[1]; vs. GS control group, 65 days, n=10, listed as sibutramine
  Weight Loss Ratio: 4.3%
[2]
  Average Food Intake During Dosing: 29.4 ± 0.9 g
[2]; listed as sibutramine
  Average Food Intake During Dosing: 29.4 g
[3]; [4]
  Effect on fat mass: reduced fat mass
[3]
  Fat Mass: 25.5 ± 6.3 g
[3]; listed as sibutramine
  Fat Mass: 25.5 g

From patent US20140350064A1, “PHARMACEUTICAL COMPOSITION COMPRISING AN AMPK ACTIVATOR AND A SEROTONERGIC AGENT AND METHODS OF USE THEREOF” (priority 2013, published 2014)
